From PMC10254314 (2023)

What was measured:
[1] = system: poly A–poly U (pApU) (RNA, polymer) A/U; test: UV thermal melting at 260 nm; details: Na+ (sodium cacodylate, I = 0.05 M), pH 7, r = [compound]/[polynucleotide] = 0.3, polynucleotide 2 × 10^-5 M, per base
[2] = system: poly dAdT–poly dAdT (AT-DNA) (DNA, polymer) AT; test: UV thermal melting at 260 nm; details: Na+ (sodium cacodylate, I = 0.05 M), pH 7, r = [compound]/[polynucleotide] = 0.3, polynucleotide 2 × 10^-5 M, per base
[3] = system: poly dAdT–poly dAdT (AT-DNA) (DNA, polymer) AT; test: UV/vis titration, Scatchard (McGhee–von Hippel) fit; details: Na+ (sodium cacodylate, I = 0.05 M), pH 7.0, n fixed 0.2, per base

ΔTm [1]	ΔTm [2] [°C]	logKs [3]	Structure (SMILES)
−1.2 ± 0.5 °C	−2.1 ± 0.5	4.9	COc1ccc(Nc2ccc(C3=[N+](C)Cc4cccc(Nc5ccc(OC)cc5)c4S3)cc2)cc1
+3.5 ± 0.5 °C	−1.5 ± 0.5	4.9	COc1ccc(Nc2ccc(C3=[N+](C)Cc4cc(Nc5ccc(OC)cc5)ccc4S3)cc2)cc1
+1 ± 0.5 °C	–	–	COc1cc2c(cc1OC)SC(c1ccc(NCc3ccc(Cl)cc3)cc1)=[N+](C)C2
−1.5 ± 0.5 °C	–	–	COc1cc2c(cc1OC)SC(c1ccc(NCc3cccc(C)c3)cc1)=[N+](C)C2
